This note sets out measurements from patent US20250011347A1, “NOVEL PLASMALOGEN DERIVATIVE” (Institute of Rheological Function of Food Co., Ltd., priority 2021, published 2025).

Entries after “also recorded” stand apart in the source; their conditions may differ.

The subject of one assay is p65 (NFkB). Kind of assay: LPS-induced p65 nuclear accumulation in BV2 microglial cells (Western blotting). Type of assay: cell-based, mouse. Particulars: compound 5 μg/ml 12 hours, then LPS 1 μg/ml 2 hours, FIG. 2. The protocol: Mouse microglial cells (BV2) were cultured using a DMEM medium containing 2% FBS (fetal bovine serum) for 12 hours under conditions with or without the addition of the compound of the present invention, KIT-008 or KIT-020 (5 μg/ml). Thereafter, it was treated with LPS (1 μg/ml) for 2 hours, proteins in the cell nucleus were extracted, and p65 (NFkB) protein expression was detected by Western blotting using NF-κB p65 (Cell Signaling Technology, the clone name: D14E12) as a primary antibody and Anti-Rabbit IgG HRP-linked antibody (Cell Signaling Technology) as a secondary antibody.

The test system of assay [1] is lysosomes in mouse neurons Neuro2a (N2a). Kind of assay: Impaired lysosomal acidification in Neuro2a neurons induced by culture supernatant of LPS-treated BV2. It is filed as cell-based. Particulars: N2a cells, compound 24 hours, then 24 hours in supernatant of LPS-treated BV2 with compound; LysoTracker Red; FIG. 10. The protocol: Lysosomes in mouse neurons Neuro2a (N2a) cultured in a normal DMEM medium were labeled with LysoPrime Green (Dojindo). LysoPrime Green is a fluorescent dye that is highly specific for lysosomes which are acidic organelles and that is resistant to pH changes.
Then, N2a is cultured in the culture supernatant of mouse glial cells BV2 treated with the endotoxin lipopolysaccharide (LPS) (1 μg/ml, 18 h) or the culture supernatant of untreated BV2, and labeled with LysoTracker™ Red DND-99 (Thermo Fisher Scientific) which targets acidic organelles.
That is, it was shown that acidification of the lysosomes in the neurons were impaired by glial cell-derived factors in the medium resulting from inflammation.
Each of the compounds of the present invention, KIT-008, KIT-019 and KIT-020 was added to the medium of N2a cells and cultured for 24 hours, and then cultured for another 24 hours in the culture supernatant of BV2 administered with LPS in the presence of each compound.

Assay [2] relates to microglia (Iba1-positive cells) and astrocytes (GFAP-positive cells) in hippocampal tissue. Briefly: LPS-induced amoeboid shaped microglia and astrocytes increase in mouse hippocampal tissue (immunohistochemistry). Type of assay: in vivo. Particulars: c57BL6J mice hippocampal tissue, 10 mg/50 kg/day in drinking water 4 weeks, then LPS 10 days. How it is done: Specifically, 8-week-old male c57BL6J mice were allowed to drink each of the compounds of the present invention (KIT-008 and KIT-020) at a dose of 10 mg/50 kg/day for 4 weeks, and were then subjected to LPS treatment (200 mg/kg/day) for 10 days while allowing them to drink the compound in the same manner. The mouse brain tissue was subjected to an immunohistochemistry (IHC) study using Iba1 (a microglia marker, Fujifilm 019-19741) and GFAP (an astrocyte marker, Sigma C9205). DAPI was used to stain a cell nucleus. In FIG. 17, the scale bar is 100 μm. The data in FIG. 18 represent the percentages of amoeboid shaped microglia and amoeboid shaped astrocytes (upper graphs) and the number of astrocytes (GFAP-positive cells) (a lower graph) in each group (3 mice, n=3). In the LPS group, the amoeboid shaped microglia (Iba1-positive cells) and the amoeboid shaped astrocytes (GFAP-positive cells) increased compared to the control group. In addition, the astrocytes (GFAP-positive cells) increased. However, in the KIT-008 group and the KIT-020 group, the LPS-induced amoeboid shaped microglia (Iba1-positive cells) increase and amoeboid shaped astrocytes (GFAP-positive cells) increase and astrocytes (GFAP-positive cells) increase were suppressed.

Assay [3] relates to amyloid beta (Aβ) in N2a cells. Briefly: Amyloid beta (Aβ) accumulation in lysosomes of CFPAPPsw-expressing N2a cells. It is filed as cell-based, mouse. Particulars: N2a cells expressing CFPAPPsw in LPS-treated BV2-derived medium, pretreatment with compound; antibody 6E10; FIG. 11. From the text: A plasmid having cDNA encoding CFPAPPsw (CFPAPPsw that fuses a fluorescent protein CFP to the N-terminus of an amyloid precursor protein (APPsw) having a Swedish-type amino acid substitution that is easily cleaved by BACE) was expressed in N2a cells, and localization of amyloid beta (Aβ) in the N2a cells in an untreated mouse glial cell BV2 culture supernatant (−LPS), in the N2a cells in LPS-treated BV2 culture supernatant (LPS-treated BV2-derived medium), and in the N2a cells administered with KIT-008 was verified using an antibody 6E10 (BioLegend) that recognizes the Aβ portion.

For assay [4], the system named is inflammatory cytokine IL-1β. Kind of assay: LPS-induced IL-1β expression in BV2 microglial cells (semi-quantitative PCR). Type of assay: cell-based, mouse. Particulars: compound 5 μg/ml 12 hours, then LPS 1 μg/ml 2 hours, FIG. 1. How it is done:
Mouse microglial cells (BV2) were cultured using a DMEM medium containing 2% FBS (fetal bovine serum) for 12 hours under conditions with or without the addition of the compound of the present invention, KIT-008 (5 μg/ml). Thereafter, the cells were treated with LPS (1 μg/ml) for 2 hours, and intracellular RNAs were extracted with an RNA extraction kit (TRI Reagent, Molecular Research Center Inc.), and the expression of an inflammatory cytokine IL-1β and the RNA expression of the Gapdh gene as a control were detected by semi-quantitative PCR (TaKaRa PrimeScript 1st strand cDNA synthesis Kit, TAKARA BIOTECHNOLOGY Co., LTD.).

The subject of assay [5] is amyloid beta (Aβ) deposition in hippocampal tissue. Briefly: LPS-induced amyloid beta (Aβ) deposition in mouse hippocampal tissue (immunohistochemistry). Particulars: c57BL6J mice hippocampal tissue, 10 mg/50 kg/day in drinking water 4 weeks, then LPS 10 days; FIG. 13, 14. Type of assay: in vivo. The protocol: Specifically, 8-week-old male c57BL6J mice were allowed to drink each of the compounds of the present invention (KIT-008 and KIT-020) at a dose of 10 mg/50 kg/day for 4 weeks, and were then subjected to LPS treatment (200 mg/kg/day) for 10 days while allowing them to drink the compound in the same manner. The mouse hippocampal tissue was subjected to an immunohistochemistry test using an anti-amyloid beta antibody (a cocktail of two antibodies, 6E10 (BioLegend) and 82E1 (Immuno-Biological Laboratories Co, Ltd)). DAPI was used to stain a cell nucleus. In FIG. 13, the scale bar is 100 μm and the arrows indicate amyloid beta that deposited. The data in FIG. 14 represent the average number of amyloid beta deposition in each group (3 mice, n=3). In the LPS group, amyloid beta deposition was observed compared to the control group, but in the KIT-008 group and the KIT-020 group, amyloid beta deposition caused by LPS was suppressed.

Regarding `CC/C=C\C/C=C\C/C=C\C/C=C\C/C=C\C/C=C\CCC(=O)O[C@H](COC/C=C/CCCCCCCCCCCCCCC)COP(=O)(O)OCCN` [KIT-008, 2-((((R)-2-(((4Z,7Z,10Z,13Z,16Z,19Z)-docosa-4,7,10,13,16,19-hexenoyl)oxy)-3-(((E)-octadec-2-en-1-yl)oxy)propoxy)(hydroxy)phosphoryl)oxy)ethane-1-ammonium 2,2,2-trifluoroacetate], the “LPS-induced p65 nuclear accumulation” value with p65 (NFkB) was “suppressed”. Further, the “impaired acidification of lysosomes in neurons caused by glial cell-derived factors” value in assay [1] was “ameliorated; also recorded: highest effect”. In addition, in assay [2] (FIG. 17, 18), the “LPS-induced amoeboid shaped astrocytes (GFAP-positive cells) increase” value is reported as “suppressed” and the “LPS-induced amoeboid shaped microglia (Iba1-positive cells) increase” value is given as “suppressed”. Further, in assay [2] (FIG. 18 lower graph), the “LPS-induced astrocytes (GFAP-positive cells) increase (number)” value is “suppressed”. For the same compound, the “accumulation of Aβ in lysosomes” value in assay [3] was “eliminated”. For the same compound, the “LPS-induced inflammatory cytokine IL-1β expression” value in assay [4] is given as “reduced”. The “amyloid beta deposition caused by LPS” value in assay [5] is given as “suppressed”.
